Series [1] relates to A2780cis cells. Description: LIVE/DEAD cell viability imaging assay. It counts as cell-based, human. The conditions noted are these: [Pt] = 1 μM, 24 h.
Description: LIVE/DEAD cell viability assays. […] Before the assay, the cells were washed with 1 mL PBS and 1 mL dye-free RPMI to remove serum esterase activity that is generally present in serum-supplemented growth media. A 100 μL volume of LIVE/DEAD working solution (formed by mixing 2 µM of calcein AM and 2 μM ethidium homodimer-1 in PBS) was carefully added to the disk, which was then incubated at r.t. for 30 min. Images were acquired using an Olympus IX70 inverted epifluorescence microscope equipped with a digital CCD camera (QImaging, Surrey, BC, Canada). Images were processed, and intensities were quantified with ImageJ software (NIH).
The nature of series [2]: GFAAS analysis of Log P values (H2O:octanol). It counts as physicochemical. The conditions noted are these: H2O:octanol 1:1, Pt content of each phase by GFAAS; whole compound. On the procedure:
The samples were first dissolved with DMSO to create 200 µM stocks. From these stocks, 50 µL was added to a H2O:Octanol mixture with a 1:1 volume ratio. This mixture was vortexed for 5 min and subsequently centrifuged for 3 min at 3000 rpm. Following centrifugation, the H2O and octanol layers were isolated for analysis. The Pt content in each phase was quantified using GFAAS to calculate the Log P value.

Series [3] relates to A2780cis cells. The series is described as follows: Flow cytometric analysis of apoptosis (Annexin V/PI). It counts as cell-based, human. The conditions noted are these: [Pt] = 0.5 μM, 48 h. On the procedure:
(§1) Cellular Responses of FALP derivatives with head groups of different hydrophobicity. Based on the observation that hydrophilic head group modifications lead to increased intracellular Pt levels, we formulated the hypothesis that such modifications would result in greater mitochondrial and DNA damage, as well as increased apoptosis. MitoSOX was utilized to assess the levels of mitochondrial ROS, while the γH2AX levels were analyzed to determine DNA damage. As mitochondrial and DNA damage are known to promote apoptosis, Annexin V/PI assays were also conducted to examine the apoptotic effects. A flow cytometric analysis was used to evaluate the mitochondrial ROS, γH2AX, and apoptosis in the cancer cells treated with FALPs (2 and 7) in the experiments. […] Based on the results, it can be inferred that the FALP derivative (2) with a hydrophilic head group modification induces mitochondrial and DNA damage as well as apoptosis more effectively than the one (7) with a hydrophobic modification.
Flow cytometric analysis of apoptosis. A2780cis cells were seeded in a 6-well plate at a concentration of 3 × 10^5 cells/well. Cells were then incubated at 37 °C 5% CO2 for 24 h. […] Both live and dead cells were collected, resuspended in 1mL PBS, and counted. […] Cells were then analyzed with FL-1 and FL-3 channels on a BD Accuri C6 flow cytometer and data were processed with FlowJo.

Series [4] concerns MDA-MB-231 breast cancer cells. The series is described as follows: MTT cytotoxicity assay, MDA-MB-231. The conditions noted are these: 24 h treatment, triple-negative MDA-MB-231. It counts as cell-based, human. The protocol:
(§2) Cytotoxicity profiles of FALP derivatives with various head groups . The in vitro anticancer activity of the Pt(IV) prodrugs (1–9) was assessed using the 3-(4,5-dimethylthiazol-2-yl)-2,5-diphenyltetrazolium bromide (MTT) assay. This study utilized two human cancer cell lines, namely A2780cis and MDA-MB-231. A2780cis is an ovarian cancer cell line known for its resistance to conventional platinum chemotherapy, making it a formidable challenge to treat. On the other hand, MDA-MB-231 represents a triple-negative breast cancer cell line, which is currently recognized as one of the difficult-to-treat cancer types. The cells were treated with 1–9 or cisplatin for 24 h, and the cell viability was evaluated. The IC50 values, which represent the concentration of the drug required to inhibit the growth of cells by 50%, are reported in the table in Figure 1B. […] Overall, the head group modifications of FALPs result in an alternation of therapeutic effects, which is a promising way to fine-tune the anticancer activity of this class of metallodrugs.
(§3) Cell culture. A2780cis cell lines were purchased from Sigma-Aldrich and cultured in RPMI 1640 with L-glutamine (Corning, New York, NY, USA) supplemented with 10% FBS (Atlanta Biologicals, USA) and 1% penicillin-streptomycin (Corning). The MDA-MB-231 cell line was obtained via American Type Culture Collection, and cultured in DMEM 1 g/L glucose, with L-glutamine and sodium pyruvate (Corning) supplemented with 10% FBS and 1% penicillin-streptomycin (Corning). All cell lines were cultured at 37 °C under an atmosphere containing 5% CO2. Cells were passaged upon reaching 80–90% confluence via trypsinization and split in a 1:5 ratio.
(§4) MTT assays. Cytotoxicity profiles of compounds 1–9 and cisplatin against different cell lines (A2780cis and MDA-MB-231) were evaluated using the MTT assays. A volume of 100 μL of a RPMI or DMEM containing 8 × 10^4 cells/mL was seeded in 96-well plates. The plates were incubated for 24 h at 37 °C with 5% CO2 to allow for adherence of cells. A volume of 50 μL of RPMI or DMEM with various concentrations of cisplatin or compounds 1–9 were added to each well of the microplates. The Pt concentrations were determined via GFAAS. After 24 h, a volume of 30 μL of MTT (5.0 mg/mL in PBS, Alfa Aesar, Haverhill, MA, USA) was added to each well of the microplates. After 24 h, the medium was aspirated, and 200 μL of DMSO was added to each well. The plates were shaken gently on a shaker at r.t. for 10 min. Then, the absorbance of purple formazan was recorded at 562 nm with a BioTek ELx800 plate reader. IC50 values were determined using Origin software v7.0. All experiments were performed in triplicate.

The test system of series [5] is A2780cis ovarian cancer cells. Description: MTT cytotoxicity assay, A2780cis. The series is classed as cell-based, human. The conditions noted are these: 24 h treatment, cisplatin-resistant A2780cis. The protocol:
as §2, §3, §4

The test system of series [6] is A2780cis cells. Description: GFAAS analysis of cellular platinum contents. The conditions noted are these: [Pt] = 1 μM, 24 h. It counts as cell-based, human. An excerpt: (§5) Cell entry and mitochondrial accumulation of FALP derivatives with head groups of different hydrophobicities. Our next objective was to gain a more detailed understanding of how modifications to the head group of FALPs affect their anticancer activities through hydrophobicity. Cellular uptake is widely recognized as a critical factor in the activity of metallodrugs. The influence of hydrophobicity on the cellular uptake of therapeutic molecules has been widely acknowledged, with an increase in hydrophobicity typically promoting cell entry. To this end, we conducted a graphite furnace atomic absorption spectroscopic (GFAAS) analysis of the cellular uptake for FALPs with various head group modifications, including 2 and 7. […] We previously discovered that mitochondria play significant roles in the mechanism of action of FALPs, so we further investigated how the hydrophobicity of the head group modifications affects the mitochondrial accumulation of FALPs. […] In summary, the introduction of a hydrophilic head group in FALPs promotes cell entry and mitochondrial accumulation.
GFAAS analysis of cellular platinum contents in A2780cis cells. […] The remaining live cells were harvested via trypsinization and counted. […] The Pt contents in the cells were analyzed via GFAAS. […]

Series [7] has as its system mitochondria of A2780cis cells. Description: Measurement of mitochondrial platinum contents. It counts as cell-based, human. The conditions noted are these: [Pt] = 1 μM, 24 h, isolated mitochondria, GFAAS.
Text: as §5
Measurements of mitochondrial platinum contents in A2780cis cells. […] Next, the wells were washed with PBS (1 mL) and harvested via trypsinization (1 mL) and counted. […] Next, the fractions were diluted 4× in water and the platinum content was analyzed using GFAAS. […]

For series [8], the system named is mitochondrial ROS in A2780cis cells. Description: Flow cytometric analysis of MitoSOX (mitochondrial ROS). It counts as cell-based, human. The conditions noted are these: [Pt] = 10 μM, 24 h, control 41.1%. On the procedure:
as §1
Flow cytometric analysis of MitoSOX. A2780cis cells were seeded in 6-well plate at a concentration of 6 × 10^4 cells/mL and incubated overnight. […] The cells were then re-suspended in PBS with 0.5% BSA to reach 10^6 cells/mL and analyzed with BD Accuri C6 flow cytometer using FL-2 channel, and data were processed with FlowJo v10.

Molecules are shown by their SMILES.

As to `CCCCCCCCCCCCCCCCNC(=O)[O][Pt]([NH2])([NH2])([Cl])([Cl])[O]C(=O)CCC(=O)NCCOCCO` [Compound 2], the “Live/dead cell imaging result” value in series [1] was “effectively eliminated all drug-resistant A2780cis ovarian cancer cells”. Further, the “Log P determined via GFAAS” value in series [2] is recorded as 1.97. Moreover, the “Apoptosis, Annexin V/PI plot, upper right quadrant (late stages of apoptosis)” value in series [3] worked out at 23.3%. Also, the results for the IC50 in series [4] and in series [5] were 0.76 ± 0.03 µM and 0.3 ± 0.06 µM, respectively. Moreover, in series [6], the “Cellular uptake (cellular Pt content)” value is recorded as 496.6 ± 16.09 pmol Pt/million cells. In series [7], the “Mitochondrial Pt content” value worked out at 31.7 ± 5.1 pmol Pt/million cells.

`CCCCCCCCCCCCCCCCNC(=O)[O][Pt]([NH2])([NH2])([Cl])([Cl])[O]C(=O)CCC(=O)NCCCCCC` [Compound 7]: the “Live/dead cell imaging result” value in series [1] is “ineffective”. Besides, the “Log P determined via GFAAS” value in series [2] came out at 2.57. Also, the “Apoptosis, Annexin V/PI plot, upper right quadrant (late stages of apoptosis)” value in series [3] is on record as 3.58%. The IC50 came to 7.05 ± 0.8 µM in series [4] and 3.75 ± 0.47 µM in series [5]. Moreover, in series [6], the “Cellular uptake (cellular Pt content)” value turned out to be 60.03 ± 8.01 pmol Pt/million cells. Besides, the “Mitochondrial Pt content” value in series [7] came out at 11.72 ± 2.76 pmol Pt/million cells.

With `CCCCCCCCCCCCCCCCNC(=O)[O][Pt]([NH2])([NH2])([Cl])([Cl])[O]C(=O)CCC(=O)NC12CC3CC(CC(C3)C1)C2` [Compound 8], the values for the IC50 in series [4] and in series [5] were 6.09 ± 0.3 µM and 5.07 ± 0.71 µM, respectively.

`CCCCCCCCCCCCCCCCNC(=O)CCC(=O)[O][Pt]([NH2])([NH2])([Cl])([Cl])[O]C(=O)NCC(=O)OCC` [Compound 9]: the 50% inhibitory concentration (IC50) in series [4] was found to be 1.42 ± 0.07 µM; in series [5], 0.4 ± 0.01 µM.

On to `CCCCCCCCCCCCCCCCNC(=O)[O][Pt]([Cl])([Cl])[O]C(=O)CCC(=O)O.N.N` [Compound 1], for which the IC50 in series [4] was found to be 6.3 ± 0.4 µM; in series [5] it was 1 ± 0.06 µM.

For `CCCCCCCCCCCCCCCCNC(=O)[O][Pt]([NH2])([NH2])([Cl])([Cl])[O]C(=O)CCC(=O)NCCC` [Compound 6], the figures for the IC50 in series [4] and in series [5] were 1.5 ± 0.4 µM and 1.12 ± 0.07 µM, respectively.

Consider `N.N.[Cl][Pt][Cl]` [Cisplatin, cisplatin, reference compound], for which the “MitoSOX (mitochondrial ROS, flow cytometry)” value in series [8] is “insignificant change”. Also, the IC50 in series [4] stood at 92 ± 8 µM; in series [5] it was 109 ± 13.5 µM.

In the case of `CCCCCCCCCCCCCCCCNC(=O)[O][Pt]([NH2])([NH2])([Cl])([Cl])[O]C(=O)CCC(=O)NCC#N` [Compound 4], the values for the half-maximal inhibitory concentration (IC50) in series [4] and in series [5] were 1.63 ± 0.12 µM and 0.41 ± 0.05 µM, respectively.

For the compound `CCCCCCCCCCCCCCCCNC(=O)[O][Pt]([NH2])([NH2])([Cl])([Cl])[O]C(=O)CCC(=O)NCC(=O)OCC` [Compound 5], the IC50 in series [4] was 5.22 ± 1.03 µM; in series [5] it was 0.39 ± 0.08 µM.

As to `CCCCCCCCCCCCCCCCNC(=O)[O][Pt]([NH2])([NH2])([Cl])([Cl])[O]C(=O)CCC(=O)NCCOC` [Compound 3], the IC50 in series [4] is 1.9 ± 0.3 µM; in series [5], 0.7 ± 0.04 µM.

The values are drawn from PMC10487970, “Exploring the Impact of Head Group Modifications on the Anticancer Activities of Fatty-Acid-like Platinum(IV) Prodrugs: A Structure–Activity Relationship Study” (International Journal of Molecular Sciences, 2023).
